The subject of series [1] is HCV Con1 subgenomic replicon (GS4.1 cells). Nature of the series: HCV replicon assay (NS5A ELISA, 72 hrs). The series is classed as cell-based. The note with it: Hepatitis C virus. The procedure: Huh-7 cells containing HCV Con1 subgenomic replicon (GS4.1 cells) were grown in Dulbecco's Modified Eagle Medium (DMEM) supplemented with 10% fetal bovine serum (FBS), 2 mM L-glutamine, 110 mg/L sodium pyruvate, 1× non-essential amino acids, 100 U/mL penicillin-streptomycin, and 0.5 mg/mL G418 (Invitrogen). For dose-response testing, the cells were seeded in 96-well plates at 7.5×10^3 cells/well in a volume of 50 μL, and incubated at 37° C./5% CO2. Three hours after plating, 50 μL often 2-fold serial dilutions of compounds (highest concentration, 75 μM) were added, and cell cultures were incubated at 37° C./5% CO2 in the presence of 0.5% DMSO. Alternatively, compounds were tested at a single concentration of 15 μM. In all cases, Huh-7 cells lacking the HCV replicon served as negative control. The cells were incubated in the presence of compounds for 72 hrs after which they were monitored for expression of the NS5A protein by enzyme-linked immunosorbent assay (ELISA). For this, the plates were then fixed for 1 min with acetone/methanol (1:1, v/v), washed twice with phosphate-buffered saline (PBS), 0.1% Tween 20, blocked for 1 hr at room temperature with TNE buffer containing 10% FBS and then incubated for 2 hr at 37° C. with the anti-NS5A mouse monoclonal antibody A-236 (ViroGen) diluted in the same buffer. After washing three times with PBS, 0.1% Tween 20, the cells were incubated 1 hr at 37° C. with anti-mouse immunoglobulin G-peroxidase conjugate in TNE, 10% FBS. After washing as described above, the reaction was developed with O-phenylenediamine (Zymed). The reaction was stopped after 30 min with 2 NH2SO4, and absorbance was read at 492 nm using Sunrise Tecan spectrophotometer. EC50 values were determined from the % inhibition versus concentration data using a sigmoidal non-linear regression analysis based on four parameters with Tecan Magellan software.

Another series is described as follows: in vitro. The series is classed as cell-based. Particulars: human; GS4.1 cells, cellular viability. The protocol: For cytotoxicity evaluation, GS4.1 cells were treated with compounds as described above and cellular viability was monitored using the Cell Titer 96 AQeous One Solution Cell Proliferation Assay (Promega). CC50 values were determined from the % cytotoxicity versus concentration data with Tecan Magellan software as described above.

The EC50 is the concentration that produces a half-maximal response. By CC50 is commonly meant the concentration giving 50% cytotoxicity. Read a low CC50 as harm at low concentration. In the case of `COC(=O)N[C@H](C(=O)N1CCC[C@H]1c1ncc(-c2ccc(-c3cn4cc(NC(=O)[C@@H]5CCCN5C(=O)[C@H](NC(=O)OC(C)(C)C)c5ccccc5)nc4s3)cc2)[nH]1)C(C)C` [Compound A1, (S,S,S,R)-[1-(2-{5-[4-(6-{[1-(2-tert-butoxycarbonylamino-2-phenyl-acetyl)-pyrrolidine-2-carbonyl]-amino}imidazo[2,1-b]thiazol-2-yl)-phenyl]-1H-imidazol-2-yl}pyrrolidine-1-carbonyl)-2-methyl-propyl]-carbamic acid methyl ester], the EC50 in series [1] is under 0.001 µM. The compound further yielded a CC50 in “in vitro” of over 75 µM. With `COC(=O)N[C@H](C(=O)N1CCC[C@H]1C(=O)Nc1cn2cc(-c3ccc(-c4cnc([C@@H]5CCCN5C(=O)[C@@H](NC(=O)OC)C(C)C)[nH]4)cc3)sc2n1)C(C)C` [Compound A2, (S,S,S,S)-(1-{2-[2-(4-{2-[1-(2-methoxycarbonylamino-3-methyl-butyryl)-pyrrolidin-2-yl]-3H-imidazol-4-yl}-phenyl)-imidazo[2,1-b]thiazol-6-ylcarbamoyl]-pyrrolidine-1-carbonyl}-2-methyl-propyl)-carbamic acid methyl ester], the EC50 in series [1] lay in the range of 0.001 to 0.01 µM. The same compound showed a CC50 in the series “in vitro” of 10 to 75 µM.

In the case of `COC(=O)N[C@H](C(=O)N1CCCC1c1ncc(-c2cn3cc(-c4ccc(-c5cnc([C@@H]6CCCN6C(=O)[C@@H](NC(=O)OC)C(C)C)[nH]5)cc4)nc3s2)[nH]1)C(C)C` (stereo partly shown) [Compound A7], the EC50 in series [1] is under 0.001 µM. Besides, the CC50 in “in vitro” was over 75 µM. For `CC(C)(C)OC(=O)N[C@@H](C(=O)N1CCOC[C@H]1C(=O)Nc1cn2cc(-c3ccccc3)sc2n1)c1ccccc1` [Compound A22] the same measures were over 0.1 µM and over 75 µM.

Turning to `CC(C)(C)OC(=O)N[C@@H](C(=O)N1CCC[C@H]1C(=O)Nc1cn2cc(C#Cc3ccccc3)sc2n1)c1ccccc1` [Compound A23], in series [1], the EC50 is over 0.1 µM. Also, in “in vitro”, the CC50 lay in the range of 10 to 75 µM.

In turn, `CC(C)(C)OC(=O)N[C@@H](C(=O)N1CCC[C@H]1C(=O)Nc1cn2cc(-c3ccccc3)sc2n1)c1ccccc1` [Compound A27] showed an EC50 in series [1] of 0.01 to 0.1 µM. The compound further returned a CC50 in “in vitro” of over 75 µM. Compound `CC(C)(C)OC(=O)Nc1ccc(-c2cn3cc(NC(=O)[C@@H]4CCCN4C(=O)[C@H](NC(=O)OC(C)(C)C)c4ccccc4)nc3s2)cc1` [Compound A29] gave an EC50 in series [1] of over 0.1 µM. The CC50 in “in vitro” is 10 to 75 µM. In series [1], `COC(=O)N[C@H](C(=O)N1CCC[C@H]1c1ncc(-c2ccc(-c3cn4cc(NC(=O)[C@@H]5CCCN5C(=O)[C@H](NC(=O)OC)c5ccccc5)nc4s3)cc2)[nH]1)C(C)C` [Compound A30, (S,S,S,R)-[1-(2-{5-[4-(6-{[1-(2-methoxycarbonylamino-2-phenyl-acetyl)-pyrrolidin-2-carbonyl]-amino}-imidazo[2,1-b]thiazol-2-yl)-phenyl]-1H-imidazol-2-yl}-pyrrolidine-1-carbonyl)-2-methyl-propyl]-carbamic acid methyl ester] had an EC50 of under 0.001 µM. The half-maximal cytotoxic concentration (CC50) in “in vitro” was over 75 µM.

In series [1], `COC(=O)N[C@H](C(=O)N1CCC[C@H]1c1ncc(-c2ccc(-c3cn4cc(NC(=O)C5CCCN5C(=O)CNC(=O)OC(C)(C)C)nc4s3)cc2)[nH]1)C(C)C` (stereo partly shown) [Compound A31] displayed an EC50 of 0.01 to 0.1 µM. The same compound registered a 50% cytotoxic concentration (CC50) in the series “in vitro” of over 75 µM. In the same order, the values of `COC(=O)N[C@H](C(=O)N1CCC[C@H]1C(=O)Nc1ccc(-c2cn3cc(NC(=O)C4CCCN4C(=O)[C@@H](NC(=O)OC)C(C)C)nc3s2)cc1)c1ccccc1` (stereo partly shown) [Compound A32] are under 0.001 µM and over 75 µM. For `COC(=O)N[C@H](C(=O)N1CCC[C@H]1c1ncc(-c2ccc(-c3cn4cc(-c5cnc(C6CCCN6C(=O)[C@@H](NC(=O)OC(C)(C)C)c6ccccc6)[nH]5)nc4s3)cc2)[nH]1)C(C)C` (stereo partly shown) [Compound A33] the same measures were under 0.001 µM and over 75 µM.

Compound `COC(=O)N[C@H](C(=O)N1CCC[C@H]1C(=O)Nc1ccc(-c2cn3cc(NC(=O)OC(C)(C)C)nc3s2)cc1)C(C)C` [Compound A34] displayed an EC50 in series [1] of 0.001 to 0.01 µM. The compound also had a CC50 in the series “in vitro” of 10 to 75 µM.

Regarding `COC(=O)N[C@H](C(=O)N1CCCC1c1ncc(-c2ccc(-c3csc4c(-c5cnc(C6CCCN6C(=O)OCc6ccccc6)[nH]5)csc34)cc2)[nH]1)C(C)C` (stereo partly shown) [Compound A49], the EC50 in series [1] is under 0.001 µM. The CC50 in the series “in vitro” is over 75 µM. On to `CCOC(=O)N[C@@H](C(=O)N1CCC[C@H]1C(=O)Nc1cn2cc(-c3ccc(-c4cnc([C@@H]5CCCN5C(=O)[C@@H](NC(=O)OC)C(C)C)[nH]4)cc3)sc2n1)c1ccccc1` [Compound A55, (S,S,S,R)-[1-(2-{5-[4-(6-{[1-(2-ethoxycarbonylamino-2-phenylacetyl)-pyrrolidine-2-carbonyl]-amino}imidazo[2,1-b]thiazol-2-yl)-phenyl]-1H-imidazol-2-yl}pyrrolidine-1-carbonyl)-2-methyl-propyl]-carbamic acid methyl ester], for which, in series [1], the EC50 is under 0.001 µM. Further, the CC50 in the series “in vitro” was 10 to 75 µM.

Take `COC(=O)N[C@H](C(=O)N1CCC[C@H]1c1ncc(-c2ccc(-c3cn4cc(NC(=O)[C@@H]5CCCN5C(=O)[C@H](NC(=O)OC(C)C)c5ccccc5)nc4s3)cc2)[nH]1)C(C)C` [Compound A56]: the EC50 in series [1] was under 0.001 µM. In addition, the CC50 in the series “in vitro” is over 75 µM. For `COC(=O)NC(C(=O)N1CCCC1c1ncc(-c2cn3cc(-c4ccc(-c5cnc([C@@H]6CCCN6C(=O)[C@H](NC(=O)OC)c6ccccc6)[nH]5)cc4)nc3s2)[nH]1)c1ccccc1` (stereo partly shown) [Compound A60], the EC50 in series [1] was under 0.001 µM. For the same compound, in “in vitro”, the CC50 was over 75 µM. In the same order, the values of `COC(=O)N[C@H](C(=O)N1CCCC1c1ncc(-c2ccc(-c3csc4c(-c5cnc(C6CCCN6C(=O)[C@@H](NC(=O)OC(C)(C)C)C(C)C)[nH]5)csc34)cc2)[nH]1)C(C)C` (stereo partly shown) [Compound A76] are under 0.001 µM and over 75 µM. For `COC(=O)N[C@H](C(=O)N1CCCC1c1ncc(-c2ccc(-c3csc4c(-c5cnc(C6CCCN6C(=O)[C@H](NC(=O)OC)C(C)C)[nH]5)csc34)cc2)[nH]1)C(C)C` (stereo partly shown) [Compound A77] the same measures were under 0.001 µM and over 75 µM. For `COC(=O)N[C@H](C(=O)N1CCCC1c1ncc(-c2csc3c(-c4ccc(-c5cnc(C6CCCN6C(=O)[C@@H](NC(=O)OC)C(C)C)[nH]5)cc4)csc23)[nH]1)c1ccccc1` (stereo partly shown) [Compound A78] the same measures were under 0.001 µM and over 75 µM. As for `COC(=O)N[C@@H](C(=O)N1CCC[C@H]1C(=O)Nc1ccc(-c2cn3cc(NC(=O)[C@@H]4CCCN4C(=O)[C@H](NC(=O)OC)c4ccccc4)nc3s2)cc1)c1ccccc1` [Compound A79], the EC50 in series [1] is under 0.001 µM. This compound also yielded a cytotoxic concentration (CC50) in the series “in vitro” of over 75 µM. For `COC(=O)N[C@@H](C(=O)N1CCC[C@H]1C(=O)Nc1ccc(C#Cc2cn3cc(NC(=O)[C@@H]4CCCN4C(=O)[C@H](NC(=O)OC)c4ccccc4)nc3s2)cc1)c1ccccc1` [Compound A80] the same measures were under 0.001 µM and over 75 µM.

Take `CC(C)(C)OC(=O)N1CCCC1c1ncc(-c2ccc(-c3cn4ccsc4n3)cc2)[nH]1` (stereo not shown) [Compound A167]: the EC50 in series [1] was over 0.1 µM.

The record behind these values is US20120252721A1 (priority 2011, published 2012).
